Reference: patent publication US4196217A, “Hydroxylated amines with bacteriostatic activity” (priority 1978, dated 1980)
Several values for one entry are separate records, joined by “and”; a condition that tells them apart may be missing. Equal values may be shown once. Read-outs that look alike come from different tables or passages of the source.

How the values were obtained:
[1] = aggressiveness to the skin by repeated application; assay type: in vivo
From the text: The method used is the method described in the Official Journal of Apr. 28, 1971 for the analysis of cosmetics and beauty products, and comprises applying 0.5 cc of 2% solution over a period of 1 month to the two zones treated, one normal, the other raw, a control zone being reserved on the hindquarters of the animal.

spores = test: sporocidal activity; assay type: cell-based; conditions: especially above 35° C. and at a pH around 7
Escherichia coli = test: bacteriostatic activity (MIC), Escherichia coli; assay type: cell-based; conditions: for MIC: Escherichia coli, 48 h; for M.I.C.: hydrochloride
Experimental: The medium containing the solution to be tested is inoculated in the form of three single striae with a 10^-5 times dilution of a bacterial culture aged 16 to 18 hours grown in salted peptone broth at a temperature of 37° C.
After inoculation, the media are stored at 37° C. for 48 hours, after which the bacterial growth is inspected. The MIC (minimum inhibiting concentrations) are expressed in micrograms of pure product per cubic centimeter of gelose medium required for inhibiting the culture (μg/cc). The control substance used is benzalconium chloride.
Tests were also carried out to determine the bacteriostatic activity of other compounds according to the invention by the method described above and in comparison with known substances, in particular with benzalconium chloride (compound T in the Tables).

M pyogenes aureus = test: bactericidal activity, M pyogenes aureus; assay type: cell-based; conditions: Table II, 2 hours contact, laboratory temperature; read-out: MIC (bactericidal activity)
Experimental: Bactericidal activity is determined by the following methods: A titrate suspension of bacteria is brought into contact over a period of 2 hours at the temperature of the laboratory with increasing dilutions of the test product. The number of bacteria still alive are counted after passage through a filtering membrane.

Bacillus pyocyaneus [2] = test: in vitro MIC on 100 strains of Bacillus pyocyaneus; assay type: cell-based; conditions: Pseudomonas aeruginosa, read-out: minimum inhibiting concentration
Experimental: In vitro tests on the activity of the compound of Example 1 were also carried out so as to determine the activity of that compound on Bacillus pyocyaneus. The results of determining the minimum inhibiting concentration on 100 different strains are as follows: […]

[3] = tested on: spores of B. subtilis var. Niger; test: sporostatic activity (b), porous membrane with rinses; assay type: cell-based
From the text: (b) A porous membrane 0.45μ thick is placed aseptically in a sterile filter support, covered with 10 cc of sterile distilled water containing 1 cc of mother solution of the product, followed by the addition of 1 cc of a suspension of spores of B. subtilis var. Niger containing approximately 40 spores. These liquids are drawn through the membrane, after which the membrane is transferred aseptically to a culture medium and placed in an oven. The operation is recommenced using up to 5 rinses of the membrane per 10 cc of sterile distilled water. The number of colonies developing is then determined.

Bacillus pyocyaneus [4] = test: MIC study in a solid medium on 35 strains of Bacillus pyocyaneus; assay type: cell-based; conditions: Pseudomonas aeruginosa, majority of 35 strains, read-out: minimum inhibiting concentration

Structure (SMILES): CCCCCCCCCCOCC(O)CN.Cl (stereo not drawn) [Compound 1, 3-decyloxy-2-hydroxy-1-aminopropane hydrochloride]
- histological examination of skin ([1]; 0.5 cc of 2% solution over 1 month): did not reveal any significant modification
- local tolerance (skin) ([1]; 0.5 cc of 2% solution over 1 month, normal and raw zones): Good local tolerance
- haematological examination ([1]; blood from the ear vein on completion of the test): normal blood formula
- sporocidal activity (spores): positive
- MIC (Escherichia coli; Table I, with 20% of serum, 37° C., 48 hours, read-out: MIC): 75 µg/mL
- MIC (Escherichia coli; Table I, without serum, 37° C., 48 hours, read-out: MIC): 20 µg/mL
- MIC (Escherichia coli; Table VI, bacteriostase containing 20% of serum, read-out: M.I.C.): 60 µg/mL
- MIC (Escherichia coli; Table VI, bacteriostase without serum, read-out: M.I.C.): 20 µg/mL
- M.I.C. (Escherichia coli; Table VI, bacteriostase containing 20% of serum): 80 μg/cc and 75 μg/cc and 100 μg/cc
- M.I.C. (Escherichia coli; Table VI, bacteriostase without serum): 25 μg/cc and 40 μg/cc
- MBC (M pyogenes aureus): 100 µg/mL
- MIC (Bacillus pyocyaneus [2]; 10 of 100 strains): 100 µg/mL
- MIC (Bacillus pyocyaneus [2]; 20 of 100 strains): 25 µg/mL
- MIC (Bacillus pyocyaneus [2]; 70 of 100 strains): 50 µg/mL
- number of colonies (No = 37) ([3]; 0 rinses of the membrane): 3
- number of colonies (No = 37) ([3]; 1 rinse of the membrane): 4
- number of colonies (No = 37) ([3]; 2 rinses of the membrane): 35
- number of colonies (No = 37) ([3]; 3 rinses of the membrane): 38
- number of colonies (No = 37) ([3]; 4 rinses of the membrane): 48
- number of colonies (No = 37) ([3]; 5 rinses of the membrane): 55
- MIC (Bacillus pyocyaneus [4]): 62.5 µg/mL
